Like-named read-outs stand apart in the source and are kept apart here.
Target: T1, His6-AspH315–758 (human aspartate/asparagine-β-hydroxylase, AspH) (Homo sapiens, UniProt Q12797)
T1 construct: N-Terminally His6-tagged human AspH315–758 (His6-AspH315–758) was produced in E. coli BL21 (DE3) cells; made in house; host or cells: E. coli BL21 (DE3), pET-28a(+) vector
T1 sequence (Q12797 315-758): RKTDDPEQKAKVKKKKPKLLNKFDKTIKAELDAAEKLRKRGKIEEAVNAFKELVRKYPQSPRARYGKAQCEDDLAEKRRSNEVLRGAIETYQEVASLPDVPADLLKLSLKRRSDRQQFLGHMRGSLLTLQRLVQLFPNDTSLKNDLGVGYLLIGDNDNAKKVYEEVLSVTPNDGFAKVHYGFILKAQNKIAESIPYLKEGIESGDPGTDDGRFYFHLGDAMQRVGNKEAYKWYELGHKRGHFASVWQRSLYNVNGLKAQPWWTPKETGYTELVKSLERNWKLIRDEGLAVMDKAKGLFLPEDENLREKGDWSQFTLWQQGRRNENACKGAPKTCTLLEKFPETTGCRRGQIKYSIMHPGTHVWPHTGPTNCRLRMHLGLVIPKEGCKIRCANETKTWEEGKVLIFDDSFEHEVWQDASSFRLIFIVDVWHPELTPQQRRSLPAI
Experiment: SPE-MS AspH inhibition assay (LOPAC screen at fixed 20 μM and IC50 dose-response), hydroxylation of cyclic peptide hFX-CP101–119
Assay type: biochemical

[1] = LOPAC compound at fixed 20 uM, plate 1, normalised to DMSO and 2,4-PDCA controls
[2] = LOPAC compound at fixed 20 uM, substrate conversion, plate 1
[3] = LOPAC compound at 20uM, plate 3, conversion of substrate peptide
[4] = LOPAC Plate 4, compound at 20 uM, substrate conversion
[5] = LOPAC compound at 20uM, plate 2, conversion of substrate peptide
[6] = LOPAC compound at 20uM, plate 2, normalised to DMSO and 2,4-PDCA controls

C=CCn1c(=O)c2c(nc(-c3ccc(S(=O)(=O)O)cc3)n2C)n(C)c1=O
Plate 1 (% inhibition) [1]: -6.98% | Plate 1 (% conversion) [2]: 38.22%

Cl.NC1(C(=O)O)CCCCC1
Plate 1 (% inhibition) [1]: 1.04% | Plate 1 (% conversion) [2]: 35.52%

Cl.NC1(C(=O)O)CC1
Plate 1 (% inhibition) [1]: -3.97%

Clc1ccc(C(c2ccccc2Cl)C(Cl)Cl)cc1 (stereo not drawn)
Plate 1 (% inhibition) [1]: -5.18% | Plate 1 (% conversion) [2]: 37.61%

COc1ccccc1N1CCNCC1.Cl
% conversion: 37.50% | % inhibition (20 µM): -3.01%

COc1ccc2c(c1)c(CC(=O)O)c(C)n2Cc1ccc(Cl)cc1
Plate 1 (% inhibition) [1]: 5.27% | Plate 1 (% conversion) [2]: 34.10%

CC1CNCCN1S(=O)(=O)c1cccc2cnccc12.Cl.Cl (stereo not drawn)
Plate 3 (% conversion) [3]: 5.68%

C[N+]1(C)CCN(c2ccccc2)CC1.[I-]
Plate 2 (% conversion): 36.09% | Plate 2 (% inhibition) (20 µM): -0.39%

CSc1nc(N)c2ncn([C@@H]3O[C@H](COP(=O)([O-])OP(=O)([O-])OP(=O)([O-])[O-])[C@@H](O)[C@H]3O)c2n1.[Na+].[Na+].[Na+].[Na+]
Plate 1 (% inhibition) [1]: 63.66% | Plate 1 (% conversion) [2]: 14.49%

Br.Br.N=C(N)SCCN
Plate 1 (% inhibition) [1]: -13.77% | Plate 1 (% conversion) [2]: 40.50%

CSc1nc(N)c2ncn([C@@H]3O[C@H](COP(=O)([O-])OP(=O)([O-])[O-])[C@@H](O)[C@H]3O)c2n1.O.[Na+].[Na+].[Na+]
Plate 1 (% inhibition) [1]: 16.28% | Plate 1 (% conversion) [2]: 30.40%

CN1C2CCC1CC(OC(=O)c1c[nH]c3ccccc13)C2.Cl (stereo not drawn)
% conversion: 31.98%

C[N+]1(C)C2CCC1CC(OC(=O)c1c[nH]c3ccccc13)C2.[I-] (stereo not drawn)
% conversion [4]: 36.85%

C[C@]12CC[C@@H](O)C[C@@H]1CC[C@@H]1[C@@H]2CC[C@]2(C)[C@@H](C(=O)CO)CC[C@@H]12
Plate 3 (% conversion): 42.66%

Cl.N=C(N)c1ccc(CS(=O)(=O)F)cc1
Plate 3 (% conversion): 34.27%

Cl.NCCc1ccc(S(=O)(=O)F)cc1
Plate 1 (% conversion): 34.69% | Plate 1 (% inhibition): 3.52%

COc1ccc2[nH]c3c(c2c1)CCNC3
Plate 1 (% conversion): 36.98% | Plate 1 (% inhibition) [1]: -3.29%

Cc1cccc(C#Cc2ccccc2)n1.Cl
Plate 3 (% conversion): 40.82%

Oc1cc(-c2ccccc2)nc2nc(Cl)ccc12
Plate 1 (% conversion): 39.07% | Plate 1 (% inhibition): -9.52%

Nc1ncnc2c1c(-c1ccc(Oc3ccccc3)cc1)cn2C1CCCC1
Plate 2 (% conversion) [5]: 45.34% | Plate 2 (% inhibition) [6]: -28.02%

COCc1nc2c([nH]1)c(=O)n(C)c(=O)n2CC(C)C
Plate 3 (% conversion) [3]: 35.26%

Cl.Nc1c2c(nc3ccccc13)CCCC2
Plate 1 (% conversion): 23.39%

C[C@H]1CCC/C=C/[C@@H]2C[C@H](O)C[C@H]2[C@H](O)/C=C/C(=O)O1
Plate 1 (% conversion): 38.82% | Plate 1 (% inhibition): -8.79%

C[N+](C)(C)CCOP(=O)([O-])OP(=O)([O-])OC[C@H]1O[C@@H](n2ccc(N)nc2=O)[C@H](O)[C@@H]1O.[Na+]
Plate 2 (% conversion) [5]: 36.80% | Plate 2 (% inhibition) [6]: -2.53%

Cl.Nc1ccn([C@@H]2O[C@H](CO)[C@@H](O)[C@@H]2O)c(=O)n1
Plate 1 (% inhibition) [1]: -2.68% | Plate 1 (% conversion) [2]: 36.77%

Cl.O[Si](CCCN1CCCCC1)(c1ccc(F)cc1)C1CCCCC1 (stereo not drawn)
Plate 2 (% conversion) [5]: 40.91% | Plate 2 (% inhibition) [6]: -14.81%

C[C@@H](N)Cc1cnc[nH]1.Cl.Cl
Plate 2 (% conversion): 36.76% | Plate 2 (% inhibition) (20 µM): -2.41%

COC(=O)[C@@H](N)Cc1ccc(O)c(O)c1.Cl
Plate 2 (% conversion) [5]: 10.54% | Plate 2 (% inhibition) [6]: 75.90%

COc1cccc(C(=O)NCCN2CCN(c3ccc(Cl)cc3)CC2)c1
Plate 1 (% inhibition) [1]: -7.35% | Plate 1 (% conversion) [2]: 38.34%

CNCCc1c[nH]c2ccc(O)cc12.O=C(O)C(=O)O
Plate 3 (% conversion): 9.71%

Cc1ccc(S(=O)(=O)N[C@@H](Cc2ccccc2)C(=O)CCl)cc1
% inhibition (LOPAC Plate 4, compound at 20 uM): -4.78% | % conversion [4]: 38.10%

COC(=O)[C@@H](N)CCCN=C(N)N[N+](=O)[O-].Cl
Plate 3 (% conversion) [3]: 34.54%

CCCCCCN(CCCCCC)C(=O)Cc1c(-c2ccc(F)cc2)[nH]c2ccccc12
Plate 2 (% conversion): 35.52% | Plate 2 (% inhibition) (20 µM): 1.31%

Cc1ccc(S(=O)(=O)N[C@@H](CCCCN)C(=O)CCl)cc1.Cl
% conversion: 33.91%

Cl.NOCC(=O)O.NOCC(=O)O
Plate 1 (% inhibition) [1]: -6.07% | Plate 1 (% conversion) [2]: 37.91%

Nc1ncnc2c1ncn2[C@@H]1O[C@H](COP(=O)(O)OP(=O)(O)OP(=O)(O)OP(=O)(O)OC[C@H]2O[C@@H](n3cnc4c(N)ncnc43)[C@H](O)[C@@H]2O)[C@@H](O)[C@H]1O
Plate 2 (% conversion) [5]: 27.58% | Plate 2 (% inhibition) [6]: 25.01%

Cl.Cl.Fc1ccc([C@@H]2CCNC[C@H]2COc2ccc3c(c2)OCO3)cc1.Fc1ccc([C@@H]2CCNC[C@H]2COc2ccc3c(c2)OCO3)cc1.O
Plate 1 (% inhibition) [1]: -22.48% | Plate 1 (% conversion) [2]: 43.42%

Br.CCCN1CCc2cc(O)cc3c2[C@H]1Cc1ccc(O)c(O)c1-3
Plate 2 (% conversion) [5]: 6.67% | Plate 2 (% inhibition) [6]: 87.47%

Br.CN1CCc2cc(O)cc3c2[C@H]1Cc1ccc(O)c(O)c1-3
Plate 2 (% conversion) [5]: 6.73% | Plate 2 (% inhibition) [6]: 87.29%

C[C@H](O)[C@H](O)[C@H]1CNc2nc(N)[nH]c(=O)c2N1.Cl
% conversion [4]: 25.86%

Nc1ncnc2c1ncn2[C@@H]1O[C@H](COP(=O)(O)CP(=O)(O)OP(=O)([O-])[O-])[C@@H](O)[C@H]1O.[Li+].[Li+]
Plate 3 (% conversion) [3]: 17.86%

5-Bromo-2-deoxyuridine
Plate 1 (% conversion): 35.50% | Plate 1 (% inhibition): 1.12%

10058-F4
Plate 1 (% conversion): 30.76% | Plate 1 (% inhibition): 15.22%

COC(=O)C(N)Cc1ccc(Cl)cc1.Cl (racemic)
Plate 1 (% inhibition) [1]: 1.48% | Plate 1 (% conversion) [2]: 35.38%

CC(N)c1cccc(Cl)c1Cl.Cl (racemic)
Plate 2 (% conversion): 38.94% | Plate 2 (% inhibition) (20 µM): -8.91%

CC(N)(Cc1ccc(O)c(O)c1)C(=O)O (racemic)
Plate 3 (% conversion) [3]: 9.94%

CCCCCCCCCC(=O)NC(CN1CCOCC1)[C@H](O)c1ccccc1.Cl (mixture of isomers)
% conversion [4]: 45.09%

NC(Cc1cc(O)c(O)cc1O)C(=O)O (racemic) [6-Hydroxy-DL-DOPA, reference compound]
Inhibition at 20 µM [%]: 103.1% | Plate 2 (% conversion): 1.44% | Plate 2 (% inhibition) (20 µM): 103.09%

CN1[C@H]2C[C@H](OC(=O)[C@H](CO)c3ccccc3)C[C@@H]1[C@@H](O)C2 (racemic) [(+/-)-Anisodamine]
Plate 2 (% conversion): 36.39% | Plate 2 (% inhibition) (20 µM): -1.30%

NC(CP(=O)(O)O)C(=O)O (racemic) [(±)-2-Amino-3-phosphonopropionic acid]
Plate 1 (% conversion): 38.27% | Plate 1 (% inhibition): -7.14%

NC(CCP(=O)(O)O)C(=O)O (racemic) [(±)-2-Amino-4-phosphonobutyric acid]
Plate 1 (% conversion): 37.71% | Plate 1 (% inhibition): -5.48%

NC(CCCP(=O)(O)O)C(=O)O (racemic) [(±)-2-Amino-5-phosphonopentanoic acid]
Plate 1 (% conversion): 39.06% | Plate 1 (% inhibition) [1]: -9.50%

Br.Oc1cc2c(c(Cl)c1O)CCNCC2c1ccccc1 (racemic) [(±)-6-Chloro-PB hydrobromide, reference compound]
Inhibition at 20 µM [%] (AspH activity, fixed compound concentration 20 μM, initial LOPAC screen, 0.5%v/v DMSO): 98.8% | % conversion [4]: 2.77%

Br.CCCN(CCC)C1CCc2ccc(O)cc2C1 (racemic) [(±)-7-Hydroxy-DPAT hydrobromide]
Plate 2 (% conversion) [5]: 37.82% | Plate 2 (% inhibition) [6]: -5.57%

From article PMC7251097, “Aspartate/asparagine-β-hydroxylase: a high-throughput mass spectrometric assay for discovery of small molecule inhibitors” (Scientific Reports, 2020)
